Where a name gives a salt, the structure may show the parent alone.
Key:
[1] = Stability of crystalline form during thermal treatment and grinding (XRPD); assay type: physicochemical
Experimental: The crystalline form A was heated to 100° C. through programmed temperature or kept at 80° C. for 24 h in DSC.
A certain amount of hydrochloride salt crystalline form A was added to a mortar and ground at room temperature for 5 minutes.

[2] = Dynamic vapor sorption (DVS) hygroscopicity analysis; assay type: physicochemical
Experimental: The obtained solid form of the salt was analyzed by dynamic vapor sorption (DVS), using a dynamic vapor sorption analyzer with a model IGA Sorp (Hidentity Isochema). The samples are measured in gradient mode and tested over a humidity range of 0% to 90% with 10% humidity increments for each gradient.
The compound has strong hygroscopicity and is not conducive to preservation. The obtained salt solid form was analyzed by using dynamic vapor sorption (DVS). The hygroscopicity comparison between the hydrochloride salt crystalline form A and the mesylate salt crystalline form C is compared.

[3] = tested on: AMLN diet-induced NASH in ob/ob mice; test: AMLN diet-induced NASH in ob/ob mice; assay type: in vivo
Experimental: Test method: (1) C57 mice and ob/ob mice were adaptively reared for 1 week. (1) The C57 mice were given LFD diet (normal mouse group), and the ob/ob mice were divided into two groups: (2) 15 mice were given LFD diet (blank control group), and the rest were given AMLN diet (containing 40 kcal % fat, 20 kcal % fructose and 2% cholesterol) for 14 weeks. (2) Sampling for pathology detection: C57+LFD diet group (n=3), ob/ob+ AMLN diet group (n=3), liver lesions were evaluated according to NAFLD activity score to estimate the degree of model construction; the mice in the ob/ob+ AMLN diet group were tested for fasting blood glucose (FBG); and blood was collected from the eye socket. The serum was separated, and ALT and insulin (INS) in the serum were detected. (3) Insulin resistance (HOMA-IR) was calculated according to HOMA-IR═INS(μ/mL)×FBG(mM)/22.5.

[4] = tested on: 17α-Ethinylestradiol (E2-17a) induced cholestasis in rats; test: 17α-ethinylestradiol (E2-17α) induced cholestasis in rats; assay type: in vivo
Experimental: Experimental method: E2-17α was administered by subcutaneous injection in the neck. The test compounds were administered by gavage for 7 days after modeling. After the last day of administration, the rats were fasted but had access to water. The experiment was performed on the next day, and treatment was performed after 24 h. The rats were anesthetized by intraperitoneal injection of 20% urethane (7 ml/kg). After anesthesia, the rats were fixed on a rat board to make a median abdominal incision from the xiphoid process of the upper abdomen downward, with a 3-4 cm incision. The common bile duct was isolated. A PE-10 polyethylene catheter (inner diameter: 0.28 mm, outer diameter: 0.61 mm) was used for intubation operation of the bile ducts. During the operation, the body […] was maintained between 37° C. and 38° C. with warm lamps and air conditioners to prevent changes in bile flow rate at low temperature. After the intubation was completed, the skin was sutured to prevent the water evaporation from the abdominal cavity. The other end of the bile duct cannula was drawn out and flowed into a fixed 0.2 mL collection tube, to consecutively perform collection every 15 min for 8 times.
Before the experiment, the weight of the bile collection tube was accurately weighed and recorded as B1. After the bile collection was completed in the experiment, the total weight of the bile and the collection tube was weighed and recorded as A2. The weight of bile in the tube was calculated by subtracting B1 from A2, and converted into volume according to 1 g/mL. The amount of bile secretion of rats in each group was expressed as mean±standard deviation (Mean±S.D). Bile Flow Rate (μL/Kg/Min)=(A2−B1)×1000000/Body Weight
The blood samples were allowed to stand for 2 h at room temperature, and centrifuged at 4000 rpm for 15 min. The serum was routinely separated to detect ALT, AST, and ALP. The left serum was aliquoted and frozen at −20° C. for subsequent detection.

[5] = AMLN diet-induced Lep^ob/Lep^ob mice NASH model

CC[C@@H]1C2C[C@H](O)CC[C@]2(C)C2CC[C@@]3(C)C(CC[C@@H]3[C@H](C)CCO[P@@]3(=O)OCC[C@@H](c4ccncc4)O3)C2[C@@H]1O (stereo partly drawn) [hydrochloride salt crystalline form A]
XRPD after grinding ([1]; ground in a mortar at room temperature for 5 minutes): main diffraction peaks of the obtained samples have not changed | XRPD after thermal treatment ([1]; heated to 100° C. through programmed temperature or kept at 80° C. for 24 h in DSC): main diffraction peaks of the obtained samples have not change | Hygroscopicity at low humidity ([2]; relative humidity lower than 75%): small | Hygroscopicity (DVS results) ([2]; relative humidity of 80%): hygroscopicity was 3.569% | overall hygroscopicity, compared between salt forms ([2]; versus mesylate salt crystalline form C): lower than that of mesylate salt crystalline form C

CC[C@@H]1C2C[C@H](O)CC[C@]2(C)C2CC[C@@]3(C)C(CC[C@@H]3[C@H](C)CCO[P@@]3(=O)OCC[C@@H](c4ccncc4)O3)C2[C@@H]1O.CS(=O)(=O)O (stereo partly drawn) [mesylate salt crystalline form C]
solid state (XRPD) after DVS ([2]; after moisture absorption): changes to an amorphous form

CC[C@@H]1C2C[C@H](O)CC[C@]2(C)C2CC[C@@]3(C)C(CC[C@@H]3[C@H](C)CCO[P@@]3(=O)OCC[C@@H](c4ccncc4)O3)C2[C@@H]1O (stereo partly drawn) [hydrochloride salt of Compound 1]
hepatocyte ballooning [3, 5]: reduce | intralobular inflammation [3, 5]: reduce | total score of NASH model ([3]; AMLN diet-induced Lep^ob/Lep^ob mouse NASH model): significantly reduce | level of ALT in the serum ([3]; NASH mice): significantly reduce | level of AST in the serum ([3]; NASH mice): significantly reduce | liver fibrosis ([3]; NASH mice): significantly reduce | strength for promoting bile excretion, compared with the E2-17α group ([4]; gavage for 7 days): significantly increased | effect of promoting bile excretion, compared with Compound 1 ([4]; gavage for 7 days, hydrochloride salt prepared in Example 3): superior effect of promoting bile excretion over Compound 1 | biliary excretion amount after 120 minutes ([4]; versus model group (E2-17α group)): still higher than that in the model group
